Reference: article PMC6797481, “Identification of an allosteric binding site on the human glycine transporter, GlyT2, for bioactive lipid analgesics” (eLife, 2019)

Key:
[1] = test system: GlyT2 F428A, V432A, Y550L, P561S, W563L and L569F mutants; assay: Screen of GlyT2 point mutants for inhibition by 1 µM oleoyl L-carnitine; type: cell-based, human; details: range over F428A
Description: The binding site for the allosteric serotonin reuptake inhibitor, (S)-citalopram, lies in the extracellular facing vestibule of SERT, formed by residues from TM1b, TM6a, TM10, and TM11 ([Coleman et al., 2016]). To determine if bioactive lipids inhibit GlyT2 by binding to this ‘vestibule allosteric site,’ corresponding residues in GlyT2 were mutated to remove potential interactions. OLCarn contains a bulky, zwitterionic head group conjugated to an oleoyl lipid tail, and was used as a screen to test mutant transporters for sensitivity to inhibition. None of the transporters containing mutations in the vestibule allosteric site display any change in inhibition compared to WT (Figure 1a). […] Mutations to GlyT2 residues were made either to resemble GlyT1, or to remove potential interactions with bioactive lipids but not disrupt the overall transport activity, often using substitutions present in the bacterial homologue, LeuT.
Figure 1. Defining the bioactive lipid binding site. (a) Inhibition of GlyT2 by 1 µM oleoyl L-carnitine. Transporters were WT or with mutations to the vestibule allosteric site (VAS) or adjacent to EL4. The reduced glycine transport currents were normalised to the current elicited by glycine alone. Data represented are means ± SEM with ****p<0.001 following a one way ANOVA test. […]

[2] = test system: rat model of neuropathic pain; set-up: method as in Mostyn et al., 2019; details: ref Mostyn et al., 2019; cited from earlier work
[3] = set-up: method as in Mostyn et al., 2019; details: ref Mostyn et al., 2019; cited from earlier work
[4] = set-up: method as in Mostyn et al., 2019; details: ref Mostyn et al., 2019; cited from earlier work; remark: listed apart in the source

Row | Molecule | inhibition of glycine transport current [1] | analgesia [2] | side effects [2] | metabolic stability [3] | blood brain barrier permeability [4]
1 | CCCCCCCC/C=C\CCCCCCCC(=O)O[C@H](CC(=O)[O-])C[N+](C)(C)C [oleoyl L-Carnitine, reference compound] | 14.9–29.0% |  |  |  | 
2 | oleoyl d-Lysine |  | produces analgesia | minimal side effects | metabolically stable | blood brain barrier permeable
